According to patent publication US20240325489A1, “CONNEXIN 43 FOR USE IN THE TREATMENT OF RETINOBLASTOMA PROTEIN POSITIVE TUMOURS” (FUNDACIÓN PROFESOR NOVOA SANTOS, priority 2021, published 2024):
“Also recorded” adds a separate entry of the source.

How the values were obtained:
[1] = system: MCF7 cells; test: Colony formation assay; type: cell-based, human; settings: for reduction in cell proliferation: FIG. 3c, MCF7, 500 nM Palbociclib 7 days, compared with untreated control
Description: (§1) Retroviral infection was used to overexpress Cx43 in MCF7 cells. Retroviral particles were generated by transfecting pLPCX-Cx43 and pLPCX-EV plasmids, kindly donated by Dr. Trond Aasen, and retroviral helper plasmids (vsvg and gag-pol) with Polyethylenimine (PEI) in HEK293T packaging cells for 48 h. The supernatant was then filtered with 0.45 μm filters and applied to MCF7 cells in the presence of 4 μg/ml polybrene (hexadimethrine bromide; Sigma-Aldrich) following 3 rounds of infection. Cells were subsequently selected with the appropriate antibiotic resistance using 0.5 μg/ml puromycin (Sigma).
(§2) Cells were treated with 250 nM of Palbociclib (PD0332991) (APExBIO), 500 nM Abemaciclib (LY2835219) (Selleckchem) or 500 nM Ribociclib (LEE011) (Selleckchem) for 7 days. All treatments were done using DMEM supplemented with 10% FBS and 100 U/mL penicillin and 100 μg/ml streptomycin. Media was replaced every 2 days.
(§3) Colony formation assays were performed plating 5×10^3 to 5×10^4 cells per well onto 6-12 well plates and grown for 7-15 days. Medium was replaced every 48 h. The cells were washed with warm Saline Solution and fixed with cold 4% PFA for 15 min. Cells were washed with PBS and stained with 0.05% of crystal violet (Sigma-Aldrich) for 15 min. After staining, the cells were washed with distilled water and dried at room temperature. The colonies were quantified by diluting crystal violet in 30% acetic acid and 100 μL of the solution was collected to measure the absorbance at 570 nm using a NanoQuant microplate reader Infinite M200 (TECAN).
HEK 293T cells were seeded onto 162 cm^2 culture flasks (Corning, Sigma-Aldrich) until confluence (80%-90%). Cells were washed three times with PBS and cultured for 48 h in DMEM 0% FBS. Supernatants were collected and centrifuged at 1800 rpm for 5 min. Pellet was discarded and supernatants were filtered through a 0.22 μm filter and then the filtered supernatants were centrifuged at 100,000 g for 90 min at 4° C. (Optimal-90K ultracentrifuge) using 70 Ti rotor (Beckman Coulter). Supernatants were discarded and pellet-containing sEVs were washed with PBS and centrifuged at 100,000 g for 90 min at 4° C. The pellet with sEVs was resuspended in culture medium. Target cells (MCF7 or T47D cells) were treated with sEVs in the presence/absence of CDK 4/6 inhibitors for 48 h. 3 rounds of treatment were performed. For NTA Nanosight NS300 analysis and sEV protein and RNA content determination, a second ultracentrifugation with PBS was performed, and sEV pellet was resuspended in PBS. […]

[2] = system: T47D cells; test: IC50 calculation, Palbociclib dose-response, crystal violet; type: cell-based; settings: Homo sapiens, 168 h; T47D (lower Cx43 than MCF7-Cx43), 7 days treatment
Description: (§4) Rb positive cell lines MCF7 (breast cancer), T47D (breast cancer) and A375 (melanoma) were cultured in Dulbecco's modified Eagle's medium (DMEM) (Lonza) supplemented with 10% fetal bovine serum (FBS) (Gibco, Thermo Fisher Scientific) and 100 U/mL penicillin and 100 μg/ml streptomycin (Gibco, Thermo Fisher Scientific). HT29 (colon adenocarcinoma) was cultured in McCoy'S 5A medium (Sigma-Aldrich) supplemented with 10% FBS and 100 U/mL penicillin and 100 μg/ml streptomycin. Cells were maintained at 37° C. in 5% CO2 humidified incubator (SANYO CO2). The medium was changed every 2 days. IC50s were calculated using cell cultures from MCF7 (EV and Cx43) and T47D cells treated with different concentrations of the CDK4/6 inhibitor Palbociclib for 7 days. Cells were stained with crystal violet and cell number was assessed measuring the absorbance at 570 nm.

[3] = system: MCF7 cells expressing the vector control (EV); test: as above; type: cell-based; settings: Homo sapiens, 168 h; MCF7 EV (no Cx43), 7 days treatment, absorbance 570 nm
Description: as §4, with “days.” for “days. IC50s were calculated using cell cultures from MCF7 (EV and Cx43) and T47D cells treated with different concentrations of the CDK4/6 inhibitor Palbociclib for 7 days. Cells were stained with crystal violet and cell number was assessed measuring the absorbance at 570 nm.”
as §1, with “Cells were subsequently selected with the appropriate antibiotic resistance using 0.5 μg/ml puromycin (Sigma).” left out
(§5) IC50s were calculated using cell cultures from MCF7 (EV and Cx43) and T47D cells treated with different concentrations of the CDK4/6 inhibitor Palbociclib for 7 days. Cells were stained with crystal violet and cell number was assessed measuring the absorbance at 570 nm.

[4] = system: MCF7 cells overexpressing Cx43 (MCF7 Cx43); test: as above; type: cell-based; settings: Homo sapiens, 168 h; MCF7 containing Cx43, 7 days treatment, absorbance 570 nm
Description: as §4, with “days.” for “days. IC50s were calculated using cell cultures from MCF7 (EV and Cx43) and T47D cells treated with different concentrations of the CDK4/6 inhibitor Palbociclib for 7 days. Cells were stained with crystal violet and cell number was assessed measuring the absorbance at 570 nm.”
as §1, with “Cells were subsequently selected with the appropriate antibiotic resistance using 0.5 μg/ml puromycin (Sigma).” left out
as §5

[5] = system: T47D cells; test: Colony formation assay; type: cell-based; settings: 7 days treatment
Description: as §2, §3
HEK 293T cells were seeded onto 162 cm^2 culture flasks (Corning, Sigma-Aldrich) until confluence (80%-90%). Cells were washed three times with PBS and cultured for 48 h in DMEM 0% FBS. Supernatants were collected and centrifuged at 1800 rpm for 5 min. Pellet was discarded and supernatants were filtered through a 0.22 μm filter and then the filtered supernatants were centrifuged at 100,000 g for 90 min at 4° C. […]

[6] = system: A375 melanoma cells; test: Colony formation assay; type: cell-based, human; settings: A375 Cx43 vs EV, 7 days, 250 nM Palbociclib, 500 nM Abemaciclib and Ribociclib
Description: (§6) Cell lines (A375 and HT29) were transfected by electroporation to overexpress Cx43. The Amaxa® Cell Line Nucleofector® Kit V (Lonza) was used to transfect cells in a Cell Line Nucleofector™ Device (Lonza). A million cells were harvested and resuspended in 100 μL of Nucleofector® solution. 3 μg of the corresponding plasmid was added, and the mixture was transferred into an electroporation cuvette using the U-28 program. Cell lines were transfected with pIRESpuro2 plasmid construct (Clontech) containing the human Cx43 sequence, kindly donated by Arantxa Tabernero (Institute of Neuroscience of Castilla y León, University of Salamanca, Spain). The transfected cells were seeded in culture medium and 24 hours (h) post-transfection the medium was replaced with complete medium containing puromycin dihydrochloride (Tocris, Bioscience) at different concentrations depending of the cell line (0.5 μg/mL to 2 μg/mL). […]
(§7) Colony formation assays were performed plating 5×10^3 to 5×10^4 cells per well onto 6-12 well plates and grown for 7-15 days. […] The colonies were quantified by diluting crystal violet in 30% acetic acid and 100 μL of the solution was collected to measure the absorbance at 570 nm using a NanoQuant microplate reader Infinite M200 (TECAN).

[7] = system: HT29 colon adenocarcinoma cells; test: Proliferation of colon cells (colony formation); type: cell-based; settings: HT29 Cx43 vs EV, 7 days, 250 nM Palbociclib, 500 nM Abemaciclib and Ribociclib
Description: as §6, §7

[8] = system: MCF7 cells; test: Hemichannel activity (ATP release) and gap-junction communication (parachute assay); type: cell-based, human; settings: MCF7 upon Cx43 restoration vs EV
[9] = system: MCF7 cells; test: Senescence and apoptosis markers (western-blot, qPCR, SA-β-galactosidase); type: cell-based, human
Description: Cells were grown onto coverslips and fixed with 4% paraformaldehyde (PFA) for 10 min at room temperature (RT). Cells were then washed twice with PBS and permeabilized by incubation with 0.2% Triton X-100 (Sigma) in PBS for 10 min at RT. After a PBS wash, cells were blocked 30 min at RT using 1% BSA in PBS supplemented with 0.1% Tween-20 (PBST). Primary antibodies were diluted in 1% BSA-PBST and incubated overnight (anti-Cx43 (#C6219), Sigma-Aldrich 1:1000; anti-Tubulin (T9026). Cells were then washed with PBS and incubated with secondary antibodies for 1 h at RT. HRP-conjugated secondary antibodies used were anti-mouse (NA-931, Sigma-Aldrich) and anti-rabbit ([…], Sigma-Aldrich). Cells were washed with PBS and fixed with 4% paraformaldehyde for 15 mins at room temperature. […] (Senescence Cells Histochemical Staining Kit Ref […]; Sigma). Cells were imaged using a light microscope at 20× magnification and single representative images of each well were taken. Total RNA was isolated from cells using TRI Reagent® RT (Vitro Bio) according to manufacturer's protocol. 200 μL of chloroform were added to the tubes and samples were incubated for 10 min at 4° C. and then centrifugated at 14,000 g for 15 min at 4° C. After centrifugation, the aqueous phase (upper) are obtained and transferred to a new tube with 500 μL of isopropanol and samples were vortexed 15 sec. The tubes centrifugated at 14,000 g for 15 min at 4° C. Supernatant was discarded, and the RNA pellets were washed with 1 mL of 70% ethanol and centrifugated for 5 min at 7,000 g at 4° C. The supernatants were discarded, and RNA pellets were air dry. RNA was treated with DNase I, RNase free (Thermo Fisher Scientific) following manufacturer's protocol. RNA samples were quantified in a Nanodrop® ND-1000 (Thermo Fisher Scientific). 1 μg of RNA was used to synthesize complementary DNA (cDNA) with the SuperscriptTM IV VILOTM Master Mix (Invitrogen, Thermo Fisher Scientific) following manufacturer's protocol. cDNA samples are quantified in a Nanodrop® ND-1000 (Thermo Fisher Scientific) and resuspended in DNase/RNase/Protease-free water (Sigma-Aldrich). 5 μL of cDNA (1 μg) were mixed with 0.5 μL of primer mix (10 μM each primer), 10 μL of Applied BiosystemsTM PowerUPTM SYBRTM Green Master Mix (Applied Biosystems, Thermo Fisher Scientific) and complete with dH2O until 20 μL per well on LightCycler® 480 System (Roche). The program consisted on a first denaturing cycle of 10 min at 95° C. followed by 30-55 amplification cycles for 10 seconds (sec) at 95° C., 30 sec at 60° C. for annealing and 12 sec at 72° C. for extension. The primers used are listed below: […]

| Compound | reduction in cell proliferation [1] | IC50 [2] [nM] | IC50 [3] [nM] | IC50 [4] [nM] | colony formation capacity [5] | effect of Cx43 overexpression on the CDK4/6 inhibitor's effect on cell proliferation ([1]; MCF7 Cx43 vs EV, 7 days, colony formation) | effect of Cx43 overexpression on inhibitor efficacy (reduction in proliferation) [6] | effect of Cx43 overexpression on inhibitor efficacy (reduction in proliferation) [7] | hemichannels activity and gap-junction intercellular communication [8] | cell proliferation / colony formation capacity ([1]; MCF7, 7 days) | β-galactosidase activity ([9]; MCF7, SA-β-galactosidase staining) | apoptotic markers Bax and Bcl2 protein ([9]; MCF7, western-blot) | levels of senescent markers p21 and p53 ([9]; MCF7, western-blot, vs vector control (EV)) | SASP factors IL6, IL8, MMP9 (qPCR) ([9]; MCF7 overexpressing Cx43 vs EV) |
| --- | --- | --- | --- | --- | --- | --- | --- | --- | --- | --- | --- | --- | --- | --- |
| CC(=O)c1c(C)c2cnc(Nc3ccc(N4CCNCC4)cn3)nc2n(C2CCCC2)c1=O [Palbociclib] | around 40% | 121 | 282 | 66.8 | – | – | – | – | – | – | – | – | – | – |
| CN(C)C(=O)c1cc2cnc(Nc3ccc(N4CCNCC4)cn3)nc2n1C1CCCC1 [Ribociclib] | – | – | – | – | effectively respond | enhances the effect | increases the efficacy | increases the efficacy | – | – | – | – | – | – |
| Cx43: connexin 43 overexpressed in tumour cells by retroviral vector or plasmid | 50% | – | – | – | – | – | – | – | increase in hemichannels activity and gap-junction intercellular communication | induces proliferation arrest; also recorded: significantly reduced cell proliferation and colony formation capacity | increases β-galactosidase activity | increases the pro-apoptotic protein Bax and reduces Bcl2 | increases the levels of the senescent markers p21 and p53 | increases the secretion of different cytokines such as IL6, IL8 and MMP9 |
